# Where no end group is shown, it is not given here. [ ]: non-standard residue; d: D form. 5(6)‑FAM = 5(6)-carboxyfluorescein
# Tests used:
# H929 cells [1] = test: Lysosensor staining of acidic vesicles, confocal microscopy; type: cell-based; conditions: 100 μg/ml, six hours, compared to control cells
# Protocol: Lysosensor green was used to detect acidic compartments and live cell imaging was performed by confocal microscopy. Shown is a representative figure. The experiment was repeated three independent times and similar results were obtained.
# Lysosensor staining. 35 mm glass bottom microwell dishes were incubated with 10 ul Cell-tak (BD biosciences San Jose, Calif.) and 290 ul 0.5M sodium bicarbonate (Sigma) for 30 minutes. The plates were aspirated and 200,000H929 or 8226 cells were plated. Cells were then treated with either water (VC), 100 μg/ml HYD1 or 100 μg/ml HYD1S for 6 hours. After the 6-hour incubation, the plates were aspirated and washed once with warm media. Media containing 1 μM lysosensor DND-189 (Molecular Probes, Carlsbad Calif.) and 20 μM Hoechst 33342 (Molecular Probes) was added and samples were incubated for an additional 30 minutes. Samples were analyzed with a Leica DMI6000 inverted TCS SP5 confocal scanner (Leica Microsystems, Germany). 405 Diode and Argon laser lines were applied to excite the samples and tunable filters were used to minimize the crosstalk between fluorochromes. Gain, offset, and pinhole setting were identical for all samples within the treatment group. Image sections at […] were captured with photomultiplier detectors and maximum projections were prepared with the LAS AF software version 1.6.0 build 1016 (Leica Microsystems, Germany).
# H929 cells [2] = test: Electron microscopy of double membrane vesicles; type: cell-based; conditions: 100 μg/ml, 4 hours
# Protocol: H929 cells were treated with either 100 µg/ml HYD1 (FIG. 24A) or HYD1S (FIG. 24B) for four hours and processed for electron microscopy as described in materials and methods.
# Electron Microscopy. H929 cells were treated for four hours with either 100 μg/ml HYD1 or HYD1S. After peptide treatment, the samples were fixed overnight in 2.5% glutaraldehyde in 0.1M phosphate buffer, pH 7.2 overnight at four degrees. Following fixation, the cells were rinsed 2 times for 10 minutes each in 0.1M phosphate buffer, pH 7.2, at 4° C. The cells were loosely pelleted in microcentrifuge tubes at 500×G for 3 minutes. The buffer was removed from the cells and replaced with 1% osmium tetroxide in the above buffer at 4° C. The cells were resuspended and post-fixed for 1 hour, then loosely pelleted and rinsed in the above buffer. This step was repeated for a total of 3 rinses of 5 minutes each, with the cells being resuspended after each buffer change. Cells were dehydrated through a graded series of acetone, 30%, 50%, 70%, and 95% acetone in water, 5 minutes per change with loose pelleting at 750×G for 5 minutes, then resuspension for each step. The cells were then dehydrated through three changes of 100% acetone, 10 minutes per change, with a 5 minute pelleting step at 1000×G, followed by resuspension in each step. […]
# 8226 cells = test: HS-5 co-culture (SF+A) model of drug resistance, melphalan apoptosis; type: cell-based; conditions: 8226 cells co-cultured with HS-5, 50 μg/ml peptide, with melphalan
# Protocol: (§1) Co-culture model. HS-5/GFP cells were plated at a density of 500,000 cells per ml and incubated overnight. Myeloma cells were incubated with vehicle control (water), 50 μg/ml HYD1 or 50 μg/ml HYD1S 30 minutes prior to the addition of myeloma cells (400,000 cell/ml) to either control plates or plates containing HS-5 cells. Myeloma cells were incubated with HS-5 cells for three hours prior to the addition of melphalan. Apoptotic cells were measured in GFP negative myeloma cells, by annexin PE staining and FACS analysis (n=9). ANOVO was performed to determine significance between conditions.
# (§2) Briefly, 8226 myeloma cells were pre-incubated with varying concentrations of either HYD1 or the scrambled HYD1S peptide for 30 minutes prior to allowing cells to attach to FN for two hours. Following two hours of cell adhesion, the amount of cells adherent to FN was measured. The next objective was to determine whether treatment of tumor cells with HYD1 results in potentiation of melphalan induced cell death in the BMS co-culture model (SF+A). […] For these studies, the HYD1 and HYD1S were pre-incubated with the […] for 30 minutes, and then cells and culture media containing the peptide were placed into the S-5 culture dish. Myeloma cells were co-cultured for an additional 3 hours with HS-5 cells before the addition of melphalan. Twenty-four hours after drug treatment, apoptosis was measured by Annexin V-PE positive events by FACS analysis. The HS-5 cells constitutively express GFP and thus it is possible to gate GFP negative cells only (myeloma cells) for the apoptotic analysis.
# H929 cells [3] = test: as above; type: cell-based; conditions: H929 cells co-cultured with HS-5, 50 μg/ml peptide, with melphalan
# Protocol: as §1, §2
# [4] = test system: phospho Pyk2 in H929 cells; test: Phospho-Pyk2 levels in suspension culture (immunoblot); type: cell-based; conditions: H929 cells cultured in suspension
# Description: Based upon the observation that HYD1 increased melphalan induced apoptosis in suspension cultures, whether treatment with HYD1 inhibits phosphorylation of a downstream mediator of β1 integrin signaling (Pyk2) in suspension cultures was investigated.
# [5] = test system: DU145 prostate cancer cells; conditions: DeRoock et al. 2001; cited from earlier work
# β1 integrin = biological target: T1, β1 integrin (Homo sapiens, UniProt P05556); test: Binding of peptide to the cell surface
# T1 construct: endogenous in cells
# Description: Another aspect of the invention concerns a method of identifying modulators of peptide binding (a screen for molecules that displace peptide binding). Agents that are identified as being capable of competing with the HYD1 peptides of the invention for binding to β1 integrin may have utility as cytotoxic agents for research or therapy (e.g., for cancer treatment). The method comprising providing a candidate agent (such as a chemical compound, antibody, nucleic acid, or peptide); and determining whether the agent inhibits (e.g., disrupts, prevents, or interferes with), the ability of a HYD1 peptide of the invention (HYD1 or a fragment or variant thereof) to bind to β1 integrin on a cell surface (e.g., cancer cell surface) and/or inhibit β1 integrin mediated adhesion, in vitro or in vivo (e.g., in an animal model). Preferably, the cell is a cancer cell such as a myeloma cell or a cell of other cancer types (see, for example Table 1). Preferably, the peptide is labeled with a detectable moiety (e.g., a fluorescent tag, such as […]) to facilitate the determining step. Examples of controls that may be utilized in carrying out the screening method include, but are not limited to, unlabeled HYD1 peptides (HYD1, or a fragment or variant thereof); scrambled peptides (such as HYD1S); β1 integrin blocking antibody; and non-specific surface antigen binding antibody (such as CD138 for myeloma cells). Advantageously, using the screening assay, labeled HYD1 or fragments or variants thereof, can be used to screen candidates such as small molecules, on natural product libraries, in a rapid, high-throughput fashion. […] Fluorescence polarization (FP) analysis can be used to screen small molecule or natural product libraries for discovery of novel compounds that mimic the specific binding and potentially the biological activity of HYD1. The FP assay is based on the extent of depolarization of the free versus bond peptide, which can be accurately measured on commercially available FP plate readers. […] In summary, a high throughput screen (HTS) can be used to bind small molecules prior to the addition of an HYD1 probe and molecules of interest can be identified by displacement of bond peptide, with a corresponding increase in unbound peptide by FP analysis. An analogous high-throughput binding assay based on fluorescence polarization, which allows screening for small molecules that bind to the STAT3 SH2 domain, is described in Schust J. and Berg T., Anal Biochem., 2004 Jul. 1; 330(1):114-8. […]
# Myeloma cells = test: Apoptotic activity of HYD1 variants in myeloma cells (cell line not stated); type: cell-based
# Protocol: Myeloma cells were plated at a density of 400,000 cells per ml in a 24 well plate. Cells were treated with the indicated dose of the peptide for 24 hours. Following 24 hrs of peptide exposure, apoptotic cells were detected using Annexin V staining and FACS analysis. Ten thousand events were analyzed by flow cytometry (Becton Dickinson, San Jose, Calif.). Experiments were performed in triplicate and repeated twice. Shown is a representative figure.
# prostate tumor cell = test: Cell adhesion supported by immobilized HYD1 fragments and variants; type: cell-based; conditions: truncation and alanine substitution of HYD1
# Description: Defining the minimal region of HYD1 necessary to potentiate drug-induced apoptosis in suspension and adherent cultures is of interest. Below is a study to determine the minimal HYD1 sequence required to block prostate tumor cell migration. Similar studies as those outlined below and using the same peptide sequences will be used to determine the minimal amino acid sequence required for potentiation of drug induced apoptosis.
# To determine the minimal element of immobilized HYD1 required for cell adhesion, the N and C terminus was systematically truncated one amino acid at a time (FIG. 14A). Most of the adhesion activity was retained with the deletion of lys-glycine from the C-terminus. However, the peptide no longer supported cell adhesion if the next residue, tryptophan was removed. Deletion of the N-terminus on the other hand, was tolerated very well until the third residue, methionine, was removed, leading to gradual decrease in cell binding.
# T1 sequence (P05556 21-798): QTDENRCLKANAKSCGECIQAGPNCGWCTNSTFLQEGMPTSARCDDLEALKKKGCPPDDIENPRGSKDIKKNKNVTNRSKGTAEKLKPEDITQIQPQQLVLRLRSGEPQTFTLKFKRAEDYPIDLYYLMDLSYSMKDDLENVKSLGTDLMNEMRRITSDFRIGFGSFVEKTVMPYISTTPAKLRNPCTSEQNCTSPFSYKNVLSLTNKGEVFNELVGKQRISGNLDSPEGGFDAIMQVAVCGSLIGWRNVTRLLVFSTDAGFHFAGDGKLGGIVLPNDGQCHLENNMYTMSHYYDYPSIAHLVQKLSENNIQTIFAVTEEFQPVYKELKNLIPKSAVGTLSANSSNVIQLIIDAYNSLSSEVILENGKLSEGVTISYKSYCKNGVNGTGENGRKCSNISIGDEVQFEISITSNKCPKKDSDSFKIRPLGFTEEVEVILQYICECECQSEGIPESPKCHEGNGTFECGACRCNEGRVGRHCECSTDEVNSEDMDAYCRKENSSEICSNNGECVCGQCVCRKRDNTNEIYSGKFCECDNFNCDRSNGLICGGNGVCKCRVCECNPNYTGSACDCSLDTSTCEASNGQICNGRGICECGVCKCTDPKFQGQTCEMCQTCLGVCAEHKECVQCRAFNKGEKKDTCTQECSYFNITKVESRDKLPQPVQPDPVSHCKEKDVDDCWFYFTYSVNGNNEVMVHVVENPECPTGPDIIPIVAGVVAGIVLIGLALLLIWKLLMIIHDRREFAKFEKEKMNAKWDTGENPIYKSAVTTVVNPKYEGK
substance,measurement,setting,value
"wiksmkivkg ([dW][dI][dK][dS][dM][dK][dI][dV][dK]G) [HYD1S, reference compound]",number and size of acidic vesicles,H929 cells [1],large vesicles noted with HYD1 treatment in both the lysosensor staining and EM analysis were not detected
same,formation of double membranes / vesicles (EM),H929 cells [2],small vesicles fused with lysosomes were observed
same,potentiation of melphalan-induced apoptosis in the SF+A model,8226 cells,but not the scrambled peptide (HYD1S) potentiates melphalan-induced cell death
same,potentiation of melphalan-induced apoptosis in the SF+A model,H929 cells [3],but not the scrambled peptide (HYD1S) potentiates melphalan-induced cell death
same,phospho Pyk2 levels,[4],but not HYD1S reduces phospho Pyk2 levels
same,inhibition of cell adhesion to extracellular matrixes,[5],not to inhibit cell adhesion
FAM-HYD1: HYD1 with R=5(6)-FAM (carboxyfluorescein) ({5(6)‑FAM}-[dK][dI][dK][dM][dV][dI][dS][dW][dK]G),binding to the cell surface,β1 integrin,binds to the cell surface
same,blocking of cell surface binding by β1 integrin antibody,β1 integrin,can be blocked
same,biological activity of conjugated HYD1,Myeloma cells,retains biological activity
ikmvisw (IKMVISW; HYD1 fragment),cell adhesion supported by immobilized peptide,prostate tumor cell,retained full cell adhesion activities
